2 compounds from ChEMBL document CHEMBL4837238, “Feature-Based Molecular Networking for the Targeted Identification of Gq-Inhibiting FR900359 Derivatives” (J Nat Prod, 2021) can be followed below.

Starred links: 1 amine or outer side, 2 acyl side, 3 side chain; linkers in the order of their positions; H or OH if unused. Positions of bridges follow the written chain, without caps; N, C: chain ends. Non-standard residues stand in square brackets, D forms with d. Residues, ends and D or L forms follow the SMILES beside them. *: point of attachment. Leu(3R-OH,Nα-propionyl) = CCC(=O)N[C@H](C(=O)*)[C@H](O)C(C)C; X1 = CC(C)[C@@H](O[*:3])[C@H](N[*:1])C(=O)[*:2]; NMeT = CN[C@H](C(=O)O)[C@@H](C)O; dPhLac = O=C(O)[C@H](O)Cc1ccccc1; NMeA = CN[C@@H](C)C(=O)O; NMeDha = C=C(NC)C(=O)O

Experiment [1] is described as follows: Displacement of [3H]-PSB15900 from human platelet membrane Gq incubated for 90 mins by scintillation counter method. The class given is cell membranes. A general note: In a radioligand displacement assay an active substance lowers the binding of a labelled ligand.
Experiment [2] addresses T1, Guanine nucleotide-binding protein G(q) subunit alpha (Homo sapiens, UniProt P50148).
T1 sequence (P50148 whole entry): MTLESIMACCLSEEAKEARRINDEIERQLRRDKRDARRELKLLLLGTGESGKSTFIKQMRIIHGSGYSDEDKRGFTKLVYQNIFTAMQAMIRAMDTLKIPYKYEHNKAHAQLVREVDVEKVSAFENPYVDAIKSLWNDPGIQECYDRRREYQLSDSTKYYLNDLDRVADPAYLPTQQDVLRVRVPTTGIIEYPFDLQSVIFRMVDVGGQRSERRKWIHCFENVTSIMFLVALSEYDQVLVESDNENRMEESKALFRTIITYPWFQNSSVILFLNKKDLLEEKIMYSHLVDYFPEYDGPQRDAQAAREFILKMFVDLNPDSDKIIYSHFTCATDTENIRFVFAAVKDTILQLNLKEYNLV
As to the kind of experiment: Inhibition of wild type GNAQ (unknown origin) expressed in CRISPR/Cas9 engineered HEK293 cells. The class given is cell-based.

As for `C=C1C(=O)N[C@@H](C)C(=O)N(C)[C@@H](C)C(=O)N[C@@H]([C@H](OC(=O)[C@@H](NC(=O)CC)[C@H](O)C(C)C)C(C)C)C(=O)N(C)[C@@H]([C@@H](C)OC)C(=O)O[C@H](C(C)C)[C@H](NC(C)=O)C(=O)O[C@H](Cc2ccccc2)C(=O)N1C` (Ac-[X1][dPhLac][NMeDha]A[NMeA][X1](Leu(3R-OH,Nα-propionyl))[NMeT](Me); ester 1-C), the pKi (in general, the Ki on a negative log10 scale, so that one unit is a factor of ten) in experiment [1] was found to be 8.66. `C=C1C(=O)N[C@@H](C)C(=O)N(C)[C@@H](C)C(=O)N[C@@H]([C@H](OC(=O)[C@@H](NC(C)=O)C(O)C(C)C)C(C)C)C(=O)N(C)/C(=C\C)C(=O)O[C@H](C(C)C)[C@H](NC(C)=O)C(=O)O[C@H](Cc2ccccc2)C(=O)N1C` (single isomer, unassigned): in experiment [1], the pKi is on record as 7.5. In experiment [2], the IC50 – broadly, the point on the concentration scale where inhibition reaches its midpoint – was 2750 nM.
